Patent publication US20210207161A1, “PLANTS CONTAINING ELITE EVENT EE-GM5 AND METHODS AND KITS FOR IDENTIFYING SUCH EVENT IN BIOLOGICAL SAMPLES, AND TREATMENT THEREOF” (priority 2018, published 2021)

Experiments:
[1] = test system: soybean plants containing event EE-GM5; assay: HPPD inhibitor herbicide tolerance field trials (maximum phytotoxicity); type: in vivo, soybean (Glycine max); settings: for average maximum phytotoxicity value: several field trials across 2 years; for tolerance of plants with EE-GM5 to the herbicide: field, different locations over 2 years
Text: Numbers in ( ) below a treatment give the number of trials included in the bar, the number on top of each bar gives the average maximum phytotoxicity value for that treatment. Treatments applied were: IFT=isoxaflutole, MST=mesotrione, PE=pre-emergence, P0=post-emergence (at V2-V3 stage, with adjuvants crop oil concentrate and ammonium sulfate added to increase herbicide activity). Rates shown are in gram active ingredient/hectare (4× dose in pre-emergence, 2× dose in post-emergence).
Tolerance of plants comprising EE-GM5 to HPPD inhibitor herbicides was tested at different locations in the field over 2 years. […] All post-emergence treatments were at the V2-V3 stage, with adjuvants crop oil concentrate and ammonium sulfate added to increase herbicide activity.
The “maximum phytotoxicity” as used herein is the highest phytotoxicity rating recorded at any observation during the duration of a trial (with 3 to 4 observations per trial). In existing weed control applications, a normal (lx) dose for isoxaflutole (IFT) in pre- or post-emergence application and for MST in post-emergence application is 105 gr/ha, and a normal (lx) dose for mesotrione in pre-emergence application is 210 gr/ha.
Also, in several field trials across 2 years, soybean plants with event EE-GM5 had good tolerance towards experimental HPPD inhibitor compound 2-methyl-N-(5-methyl-1,3,4-oxadiazol-2-yl)-3-(methylsulfonyl)-4-(trifluoromethyl)benzamide (U.S. Pat. No. 9,101,141) when applied pre-emergence at 400 gr ai/ha or post-emergence at 200 gr ai/ha, respectively (the average maximum phytotoxicity value for each treatment was below 20%). […] All post-emergence treatments were at the V2-V3 stage, with adjuvants crop oil concentrate and ammonium sulfate added to increase herbicide activity.
Also, plants with EE-GM5 when treated post-emergent (V2-V3) with topramezone at 36 g ai/ha (+COC and AMS) in 2 field trials in the US gave an average maximum phytotoxicity of 11%, showing EE-GM5 also confers good tolerance to this HPPD inhibitor.

[2] = test system: soybean plants containing event EE-GM5; assay: as above; type: in vivo, soybean (Glycine max); settings: 3rd year
[3] = applied post-emergence (V2-V3 stage, with adjuvants)

How did the average maximum phytotoxicity ([1]; post-emergence (V2-V3) at 100-150 gr ai/ha, with crop oil concentrate and ammonium sulfate) turn out when `CSc1c(C(F)(F)F)ccc(C(=O)Nc2nnnn2C)c1Cl` [2-chloro-3-(methylsulfanyl)-N-(1-methyl-1H-tetrazol-5-yl)-4-(trifluoromethyl)benzamide] was run?
Its average maximum phytotoxicity is 20%.

And the average maximum phytotoxicity ([2]; post-emergence at 150 g/ha, 3 field trial locations, Thorne background)?
Its average maximum phytotoxicity is 13.3%.

Which results are given for `Cc1nnc(NC(=O)c2ccc(C(F)(F)F)c(S(C)(=O)=O)c2C)o1` [2-methyl-N-(5-methyl-1,3,4-oxadiazol-2-yl)-3-(methylsulfonyl)-4-(trifluoromethyl)benzamide]?
average maximum phytotoxicity value ([1]; post-emergence (V2-V3) at 200 gr ai/ha, with crop oil concentrate and ammonium sulfate): below 20%; average maximum phytotoxicity value ([1]; pre-emergence at 400 gr ai/ha): below 20%

`CS(=O)(=O)c1cc(C(F)(F)F)ccc1C(=O)c1cnoc1C1CC1` [isoxaflutole, (5-cyclopropyl-4-isoxazolyl)[2-(methylsulfonyl)-4-(trifluoromethyl)phenyl]methanone] was tested. Which “tolerance of plants with EE-GM5 to the herbicide” value (from here on “tolerance of plants with EE-GM5”) [1, 3] did it give?
Its value is “commercially relevant tolerance”.

And the “tolerance of plants with EE-GM5” value ([1]; applied pre-emergence)?
The value was “commercially relevant tolerance”.

What about the average maximum phytotoxicity ([2]; post-emergence (V2-V3 stage), 210 h/ha, 4 locations, EE-GM5 in Thorne background) of the same compound?
The average maximum phytotoxicity was 10.9%.

And the maximum phytotoxicity ([2]; pre-emergence, 410 g/ha, one field trial location, EE-GM5 in Thorne background)?
Its maximum phytotoxicity is 9%.

For `CS(=O)(=O)c1ccc(C(=O)C2C(=O)CCCC2=O)c([N+](=O)[O-])c1` [mesotrione, 2-[4-(Methylsulfonyl)-2-nitrobenzoyl]cyclohexane-1,3-dione], which “tolerance of plants with EE-GM5” value [1, 3] is on record?
Its value is “commercially relevant tolerance”.

What about the “tolerance of plants with EE-GM5” value ([1]; applied pre-emergence) of the same compound?
Its value is “commercially relevant tolerance”.

How did the average maximum phytotoxicity ([1]; post-emergent (V2-V3) at 36 g ai/ha (+COC and AMS), 2 field trials in the US) turn out when `Cc1c(C(=O)c2cnn(C)c2O)ccc(S(C)(=O)=O)c1C1=NOCC1` [topramezone, [3-(4,5-dihydro-3-isoxazolyl)-2-methyl-4-(methylsulfonyl)phenyl](5-hydroxy-1-methyl-1H-pyrazol-4-yl)methanone] was run?
Its average maximum phytotoxicity is 11%.
